Consider 3 compounds from paper PMC9614482, “The superior salinity tolerance of bread wheat cultivar Shanrong No. 3 is unlikely to be caused by elevated Ta-sro1 poly-(ADP-ribose) polymerase activity” (The Plant Cell, 2022).

The target in assay [1] is T1, HsPARP1 catalytic domain (PARP domain) (Homo sapiens, UniProt P09874, L713F).
T1 construct: gene PARP1; recombinant, made in the authors' laboratory; only the L713F variant tested
The experiment in a line: differential scanning fluorimetry. Particulars: 6(5H)-phenanthridinone concentrations above 2 µM. The format is binding. A general note: In DSF a fluorescence change marks the thermal transition of the protein.

In the next assay the target is T2, AtPARP2 (Arabidopsis thaliana, UniProt Q11207).
T2 construct: gene PARP2; GFP fusion, transiently expressed in Nicotiana benthamiana, immunoprecipitated with GFP-nanobody
Nature of the assay: immunoprecipitated GFP fusion, pan-ADP-ribose immunoblot. The format is biochemical. Particulars: 300 µM β-NAD+ in extraction buffer; auto-ADP-ribosylation, PAR chain formation.

The target of another assay is T3, HsPARP1 (full-length) (Homo sapiens, UniProt P09874).
T3 construct: gene PARP1; full-length protein supplied in the PARP Universal Colorimetric Assay Kit (Trevigen)
It counts as biochemical. The note with it: histones as substrates.

T3 sequence (P09874 2-1014): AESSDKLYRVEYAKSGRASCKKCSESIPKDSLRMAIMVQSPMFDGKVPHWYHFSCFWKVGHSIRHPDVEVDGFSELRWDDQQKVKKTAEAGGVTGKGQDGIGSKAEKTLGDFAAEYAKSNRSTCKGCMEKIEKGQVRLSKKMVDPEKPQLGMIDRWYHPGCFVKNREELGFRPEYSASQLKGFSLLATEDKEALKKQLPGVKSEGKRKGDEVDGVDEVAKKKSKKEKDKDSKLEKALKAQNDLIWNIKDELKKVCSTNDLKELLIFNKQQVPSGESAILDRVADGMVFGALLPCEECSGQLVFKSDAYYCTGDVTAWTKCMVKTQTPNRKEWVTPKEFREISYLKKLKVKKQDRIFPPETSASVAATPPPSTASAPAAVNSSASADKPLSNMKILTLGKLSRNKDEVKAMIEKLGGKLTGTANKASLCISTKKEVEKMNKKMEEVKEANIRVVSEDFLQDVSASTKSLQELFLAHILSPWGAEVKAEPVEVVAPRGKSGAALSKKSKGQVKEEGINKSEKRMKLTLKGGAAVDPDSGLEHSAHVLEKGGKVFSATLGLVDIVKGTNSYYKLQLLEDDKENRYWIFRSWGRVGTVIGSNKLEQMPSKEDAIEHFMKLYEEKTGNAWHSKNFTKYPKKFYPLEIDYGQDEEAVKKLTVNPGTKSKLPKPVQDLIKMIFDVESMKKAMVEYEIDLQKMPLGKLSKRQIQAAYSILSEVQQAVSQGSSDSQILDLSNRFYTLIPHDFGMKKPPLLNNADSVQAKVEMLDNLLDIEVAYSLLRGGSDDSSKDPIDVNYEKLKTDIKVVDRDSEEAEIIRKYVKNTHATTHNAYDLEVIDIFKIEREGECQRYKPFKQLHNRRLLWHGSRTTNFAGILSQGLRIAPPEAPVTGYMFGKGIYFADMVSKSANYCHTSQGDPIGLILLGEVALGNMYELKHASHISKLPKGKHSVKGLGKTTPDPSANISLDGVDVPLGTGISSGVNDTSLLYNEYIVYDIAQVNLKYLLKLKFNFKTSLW
T2 sequence (Q11207 whole entry, the tested form may be a part): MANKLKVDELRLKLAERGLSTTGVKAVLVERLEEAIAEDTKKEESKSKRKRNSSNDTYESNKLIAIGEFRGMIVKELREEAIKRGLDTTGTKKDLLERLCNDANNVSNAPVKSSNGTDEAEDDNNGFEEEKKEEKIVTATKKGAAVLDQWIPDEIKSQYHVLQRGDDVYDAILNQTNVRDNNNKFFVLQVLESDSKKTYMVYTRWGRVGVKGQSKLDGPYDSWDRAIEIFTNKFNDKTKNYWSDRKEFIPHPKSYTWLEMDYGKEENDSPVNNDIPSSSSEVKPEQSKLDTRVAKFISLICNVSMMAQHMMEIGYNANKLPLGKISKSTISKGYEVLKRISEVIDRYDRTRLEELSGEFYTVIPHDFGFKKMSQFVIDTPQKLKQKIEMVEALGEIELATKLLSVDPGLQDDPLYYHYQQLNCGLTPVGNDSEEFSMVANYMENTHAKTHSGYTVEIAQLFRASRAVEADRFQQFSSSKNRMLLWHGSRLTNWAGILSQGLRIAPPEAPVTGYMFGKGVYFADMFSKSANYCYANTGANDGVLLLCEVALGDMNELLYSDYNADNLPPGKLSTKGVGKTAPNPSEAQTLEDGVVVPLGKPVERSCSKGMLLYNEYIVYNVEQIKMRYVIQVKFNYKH
T1 sequence (P09874 662-1014 L713F limits assumed): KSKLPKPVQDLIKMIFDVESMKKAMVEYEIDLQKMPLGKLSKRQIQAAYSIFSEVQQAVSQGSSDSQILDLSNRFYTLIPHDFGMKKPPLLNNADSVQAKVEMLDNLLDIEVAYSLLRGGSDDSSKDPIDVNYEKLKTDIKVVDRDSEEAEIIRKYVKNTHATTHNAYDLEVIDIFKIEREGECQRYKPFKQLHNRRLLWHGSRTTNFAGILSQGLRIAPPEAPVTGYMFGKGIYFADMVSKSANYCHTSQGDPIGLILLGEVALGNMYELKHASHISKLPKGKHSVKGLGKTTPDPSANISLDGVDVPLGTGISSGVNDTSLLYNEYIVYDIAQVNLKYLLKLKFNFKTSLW

Regarding `O=c1[nH]c2ccccc2c2ccccc12` [6(5H)-phenanthridinone], in assay [1], the dTm result is “~ +4 °C”.

As to `NC(=O)c1ccc[n+]([C@@H]2O[C@H](COP(=O)(O)OP(=O)(O)OC[C@H]3O[C@@H](n4cnc5c(N)ncnc54)[C@H](O)[C@@H]3O)[C@@H](O)[C@H]2O)c1` [NAD+], the “immunoprecipitated GFP fusion, pan-ADP-ribose immunoblot” value on AtPARP2 is “canonical Arabidopsis PARP2 enzyme formed PAR chains in a NAD^+-dependent manner”.

Consider `NC(=O)c1cccc(N)c1` [3-aminobenzamide], for which the “colorimetric PARP assay kit, ADP-ribosylation of histones” value on HsPARP1 (full-length) is given as 3-aminobenzamide (3AB) inhibited ADP-ribosylation of histones by HsPARP1.
